From patent publication US20230346773A1, “USE OF PCSK9 INHIBITOR IN PREPARATION OF PRODUCT FOR TREATING MULTIPLE DISEASES” (priority 2020, published 2023)
Marks after values point to notes of the source that are not given here.

Key:
[1] = system: hair follicles / hair growth in depilated C57BL/6 mice; test: Hair growth in C57BL/6 mice after rosin/paraffin depilation; assay type: in vivo
Procedure: SPF grade C57BL/6 mice were selected and numbered according to their weight. They were randomly divided into compound group 1 (skin applied with 2% R-IMPP solution), compound group 2 (skin applied with 2% PF 06446846 solution), and compound group 3 (skin applied with 2% SBC-115076 solution), compound group 4 (skin applied with 2% SBC-110736 solution), monoclonal antibody group 1 (PCSK9subcutaneous injection monoclonal antibody ab81041, 5 mg/kg·d), monoclonal antibody group 2 (Subcutaneous injection of Evolocumab, 5 mg/kg·d), monoclonal antibody group 3 (subcutaneous injection of Alirocumab, 5 mg/kg·d), PCSK9 RNA interference group-1 (skin applied with 2% PCSK9 small interfering RNA-1 solution), PCSK9 RNA interference Group-2 (skin applied with 2% PCSK9 small interfering RNA-2 solution), PCSK9 RNA interference group-3 (skin applied with 2% PCSK9 small interfering RNA-3 solution), polypeptide group (subcutaneous injection of Abcam company ab32727, 3 mg/kg·d), positive control group (skin applied with 2% minoxidil solution), negative control group (skin applied with 60% ethanol), and model control group (skin applied with 60% ethanol), 10 mice in each group, half male and half female. After the mice were anesthetized with ether, they were coated on the back with a mixture of rosin and paraffin (1:1) after hot melting, and then peeled off after it solidified and hardened. The back of the mouse was cleaned to be hairless and without injuries. The depilation area was about 3 cm×4 cm. From the 2nd day after depilation, the corresponding drugs were applied to the hair removal area, twice a day, 0.5 mL per animal each time, and subcutaneously injected once a week.
From the second day after application, observe the daily color change of the skin on the back of the mice to determine the growth state of the hair follicles and visually observe the hair growth in the depilation area, and score the new hair growth in the depilation area once a day. Five mice in each group were reserved for 40 days of visual observation, and the growth of back hair was recorded.
On the 17th day, five mice in each group were sacrificed by cervical dislocation. The samples were taken from the same part of the back parallel to the spine, fixed with 10% formaldehyde, dehydrated, embedded in paraffin, sectioned, stained with HE, and sealed with neutral gum. Then the histology of hair follicles was observed under light microscope, and morphological staging of hair follicles was performed. According to the international hair cycle scoring method, the hair follicles were scored as follows: 100 points for growth stage VI, 200 points for early regression, 300 points for middle regression, and 400 points for late regression. 50 hair follicles were randomly selected from each mouse, the cycle of the hair follicles in each group was determined, and the average hair cycle score and the percentage of hair follicles in the growth phase VI, early regression, middle regression, and late regression were calculated.

[2] = system: androgenetic alopecia (SA) rat model; test: Androgenetic alopecia (SA) rat model induced by testosterone propionate; assay type: in vivo, Wistar rats
Procedure: SPF grade Wistar rats were selected and randomly divided into compound group 1 (skin applied with 5% R-IMPP solution), compound group 2 (skin applied with 5% PF 06446846 solution), and compound group 3 (skin applied with 5% SBC-115076 solution), compound group 4 (skin applied with 5% SBC-110736 solution), monoclonal antibody group 1 (subcutaneous injection of PCSK9 monoclonal antibody ab84041, 5 mg/kg·d), monoclonal antibody group 2 (subcutaneous injection of Evolocumab, 5 mg/kg·d), monoclonal antibody group 3 (subcutaneous injection of Alirocumab, 5 mg/kg·d), PCSK9 RNAi inhibitor group-1 (skin applied with 5% PCSK9 small interfering RNA-1 solution), PCSK9 RNAi inhibitor group-2 (skin applied with 5% PCSK9 small interfering RNA-2 solution), PCSK9 RNAi inhibitor group-3 (skin applied with 5% PCSK9 small interfering RNA-3 solution), and polypeptide group (subcutaneous injection of Abcam company ab32727, 3 mg/kg·d), positive control group (skin smeared with 5% minoxidil tincture), negative control group (smeared with 75% ethanol), model control group (smeared with 75% ethanol), 10 rats in each group, half male and half female.
Before the experiment, each rat selected an area of 4 cm×5 cm on the back to remove the hair as the observation area. Except for the negative control group, the rats were subcutaneously injected with testosterone propionate injection [[…]] at the back of the neck, once a day for 60 consecutive days to establish the SA model. […] At the same time, the rats in the corresponding drug group were smeared or subcutaneously injected on the skin of the observation area of the rats in the drug group, smeared 1 ml/(per time), twice a day, with an interval of 8 hours, and administered by subcutaneous injection, once a day. The negative control group and the model control group were smeared with excipient (75% ethanol solution), 1 mL one rat per time, twice a day, for 60 consecutive days.
10 hairs were extracted from the observation area on the back of each rat every 15 days after administration, and the hair length was measured with a vernier caliper. After 60 days of administration, the skin of the experimental observation area was taken for routine tissue dehydration, paraffin embedding, HE staining, and light microscopy to observe the histopathological changes of the rat skin hair follicles and sebaceous glands. Semi-quantitative analysis was carried out in each group. The grading standards are as follows: normal skin dermal tissue cells, subcutaneous hair follicles, and sebaceous glands were marked as “one”; no hyperplasia in the dermis, limited lesions of hair follicles and sebaceous glands, and no subcutaneous inflammation, marked as “±”; no obvious hyperplasia found in the dermis, obviously cystic follicles, no obvious hyperplasia found in the sebaceous glands, and no inflammation is recorded as “+”; segmental hyperplasia of skin and dermis was not obvious, a small number of hair follicles had cystic degeneration, and sebaceous glands had mild hyperplasia and hypertrophy. No obvious inflammation under the skin was recorded as “++”; the skin and dermis tissue cells had segmental hyperplasia of different degrees, some follicles degenerated, the size of the hair follicles was uneven, and there were no cells in the periphery. There was hyperplasia of sebaceous glands, and there were few nuclei in the hyperplasia glands. Individual rats had mild inflammatory hyperplasia under the skin, which was marked as “+++”.

[3] = hair removal area on the back of mice, after hair removal

## Nc1cc(N2CCCCC2)nc(N)[n+]1[O-] [Positive control group, minoxidil]
[1]; 17th day after hair plucking
  percentage of hair follicles in the growth stage VI: 42%
[1]; 17th day after hair plucking, 100 points growth stage VI, 200 early, 300 middle, 400 late regression
  average hair cycle score: 185
[1]; back hair removal area of mice
  Time from hair growth to the same length as the hair in the non-experimental area: 15.77 days
  Time to grow new hair: 7.85 days
  Time to match the length of hair in the non-experimental area: 23.62 days
[1]; hair removal area on the back of mice
  Black skin duration: 12.80 days
[1]; [3]
  Skin black-turning time: 6.29* days
  Skin grayish-black-turning time: 19.09* days
[2]; 10 rats, after 60 days, few follicles with cystic degeneration, sebaceous glands mild hyperplasia and hypertrophy
  Skin hair follicles and sebaceous glands: number of rats graded ++: 2
[2]; 10 rats, after 60 days, no hyperplasia in the dermis, limited lesions of hair follicles and sebaceous glands, no subcutaneous inflammation
  Skin hair follicles and sebaceous glands: number of rats graded ±: 3
[2]; 10 rats, after 60 days, no obvious hyperplasia in dermis, obviously cystic follicles, no inflammation
  Skin hair follicles and sebaceous glands: number of rats graded +: 5
[2]; 10 rats, after 60 days, normal skin dermal tissue cells, subcutaneous hair follicles and sebaceous glands
  Skin hair follicles and sebaceous glands: number of rats graded −: 0
[2]; 10 rats, after 60 days, segmental hyperplasia, degenerated follicles, hyperplasia of sebaceous glands, mild inflammatory hyperplasia
  Skin hair follicles and sebaceous glands: number of rats graded +++: 0
[2]; rats, 15 days after administration
  15 d hair length: 7.9* mm
[2]; rats, 30 days after administration
  30 d hair length: 8.4* mm
[2]; rats, 45 days after administration
  45 d hair length: 12.8* mm
[2]; rats, 60 days after administration
  60 d hair length: 14.9* mm
